Measured values as given in BindingDB's records for doi:10.1016/j.bmcl.2003.08.049 (Merck Research Laboratories, 2003).

Target: T1, Dimer of Gag-Pol polyprotein [489-587,Q496K] (Human immunodeficiency virus 1, UniProt P12497, Q496K)
T1 construct: 489-587
Test: Protease Inhibition Assay
Settings: pH 5.5; 30 °C
Description: Assay of HIV protease inhibition was performed by peptide cleavage using the substrate Val-Ser-Gln-Asn-beta-naphthylalanine*Pro-Ile-Val. Products of the cleavage reaction were quantified by HPLC detection, and data were fit to nonlinear least squares equations for determination of steady-state Michaelis-Menten kinetics.

SMILES: O=C(N[C@H]1c2ccccc2OC[C@H]1O)[C@H](Cc1cccnc1)C[C@H](O)CN1CCN(Cc2ccc(-c3ccccc3)o2)C[C@H]1C(=O)NCC(F)(F)F [(2S)-1-[(2S,4R)-2-hydroxy-4-{[(3S,4S)-3-hydroxy-3,4-dihydro-2H-1-benzopyran-4-yl]carbamoyl}-4-(pyridin-3-ylmethyl)butyl]-4-[(5-phenylfuran-2-yl)methyl]-N-(2,2,2-trifluoroethyl)piperazine-2-carboxamide]
- IC50: 0.02 nM
